From patent US10897901B2, “Herbicidal composition” (FMC Corporation, priority 2007, dated 2021)

Key:
Type in all cases: in vivo
[1] = tested on: Hemp Sesbania (Sesbania exaltata); experiment: Example 4 post-emergence greenhouse pot test, hemp sesbania
Method: (§1) Test compositions containing sulfentrazone (75 DF formulation), quniclorac, (DRIVE® 75 DF Herbicide) or mixtures of sulfentrazone and quinclorac at ratios of 1:1 to 1:5, were diluted with water to provide the appropriate test rate concentrations. A nonionic surfactant (0.25%) was added to each test solution. The test weeds include crabgrass (Digitaria sp), Chickweed (Stellaria media), Hemp Sesbania (Sesbania exaltata), Kochia (Kochia scoparia), Ivyleaf Morningglory (Ipomoea hederacea), Redroot Pigweed (Amaranthus retroflexus) and yellow nutsedge (Cyperus esculentusi).
(§2) For post-emergence testing, three disposable 3 inch square pots for each rate of application of each herbicide were filled with a soil, comprised of peat moss, vermiculite, bark ash, pine bark, limestone and a wetting agent, to which 8 to 10 seeds were planted. The pots were placed in a greenhouse and watered daily, thus allowing the seeds to germinate and the foliage to develop for 22 days, 3 months for Kochia.
(§3) Pots designated for treatment were placed on a conveyor belt and the conveyor belt fed under a spray nozzle mounted about ten inches above the foliage. The spray of herbicidal solution was commenced and once stabilized; the pots were passed under the spray at a speed to receive a coverage equivalent of 30 gallons per acre. The application rates are those shown in Table 4 below for the individual herbicidal solutions and the mixture of sulfentrazone and quinclorac. The post-emergence pots were immediately placed in the green-house and not watered until 24 hours after treatment with the test solution. Thereafter they were regularly watered at ground level. The control of weeds was evaluated in each experimental test from 2 to 20 days after treatment (DAT). The results, shown as an average of the replications, were compared with results observed in untreated control pots in the same tests.
(§4) Percent control was determined by a method similar to the 0 to 100 rating system disclosed in “Research Methods in Weed Science,” 2nd ed., B. Truelove, Ed.; Southern Weed Science Society; Auburn University, Auburn, Ala., 1977.

[2] = tested on: Blackseed Plantain (Plantago rugelii); experiment: Example 1 post-emergent turf plot test, plantain; conditions: 0.75 lb ai/acre
Method: The experimental design used randomized plots with post-emergent treatment and three replications per test trial. The size of each experimental plot was 4 feet by 6 feet. The application of each test composition was performed with pressurized back-pack sprayers, calibrated to spray 200 gallons per acre. Test compositions containing sulfentrazone (DISMISS™ Turf Herbicide), quniclorac, (FACET® 75 DF herbicide) or a mixture of sulfentrazone and quinclorac in a 1:3 ratio, prepared as described above, were diluted with water to provide the appropriate test rate concentrations.
The control of weeds was evaluated in each experimental plot from 7 to 41 days after treatment (DAT) of each test rate. The results, shown as an average of the replications, were compared with results observed in untreated control plots in the same trials.

[3] = tested on: Chickweed (Stellaria media); experiment: Example 4 post-emergence greenhouse pot test, chickweed
Method: as §1, §2, §3, §4

[4] = tested on: Red River crabgrass (Digitaria ciliaris); experiment: Example 3 post-emergence greenhouse pot test, crabgrass
Method: Test compositions containing sulfentrazone (DISMISS™ Turf Herbicide), quniclorac, (DRIVE® 75 DF Herbicide) or mixture of sulfentrazone and quinclorac in a three to one ratio, prepared as described above, were diluted with water to provide the appropriate test rate concentrations. A nonionic surfactant (0.25%) was added to each test solution.
The test weeds include Red River crabgrass (Digitaria ciliaris) and yellow nutsedge (Cyperus esculentusi).
as §2, with “develop.” for “develop for 22 days, 3 months for Kochia.”
as §3, with “Table 3” for “Table 4”, “from 1” for “from 2”, “to 22” for “to 20”
as §4

## O=C(O)c1c(Cl)ccc2cc(Cl)cnc12 [B, 3,7-dichloro-8-quinolinecarboxylic acid]
[1]; 0.25 lb ai/acre, 2 DAT
  Percent Control: 0%
[1]; 0.25 lb ai/acre, 7 DAT
  Percent Control: 0%
[1]; 0.25 lb ai/acre, 14 DAT
  Percent Control: 5%
[1]; 0.25 lb ai/acre, 20 DAT
  Percent Control: 20%
[1]; 0.5 lb ai/acre, 2 DAT
  Percent Control: 0%
[1]; 0.5 lb ai/acre, 7 DAT
  Percent Control: 10%
[1]; 0.5 lb ai/acre, 14 DAT
  Percent Control: 20%
[1]; 0.5 lb ai/acre, 20 DAT
  Percent Control: 60%
[1]; 0.75 lb ai/acre, 2 DAT
  Percent Control: 0%
[1]; 0.75 lb ai/acre, 7 DAT
  Percent Control: 0%
[1]; 0.75 lb ai/acre, 14 DAT
  Percent Control: 10%
[1]; 0.75 lb ai/acre, 20 DAT
  Percent Control: 60%
[1]; 1.0 lb ai/acre, 2 DAT
  Percent Control: 10%
[1]; 1.0 lb ai/acre, 7 DAT
  Percent Control: 10%
[1]; 1.0 lb ai/acre, 14 DAT
  Percent Control: 20%
[1]; 1.0 lb ai/acre, 20 DAT
  Percent Control: 60%
[1]; 1.25 lb ai/acre, 2 DAT
  Percent Control: 0%
[1]; 1.25 lb ai/acre, 7 DAT
  Percent Control: 0%
[1]; 1.25 lb ai/acre, 14 DAT
  Percent Control: 10%
[1]; 1.25 lb ai/acre, 20 DAT
  Percent Control: 50%
[2]; 7 DAT
  Percent Control: 100%
[2]; 14 DAT
  Percent Control: 100%
[2]; 21 DAT
  Percent Control: 100%
[2]; 28 DAT
  Percent Control: 100%
[3]; 0.25 lb ai/acre, 2 DAT
  Percent Control: 0%
[3]; 0.25 lb ai/acre, 7 DAT
  Percent Control: 0%
[3]; 0.25 lb ai/acre, 14 DAT
  Percent Control: 0%
[3]; 0.25 lb ai/acre, 20 DAT
  Percent Control: 0%
[3]; 0.5 lb ai/acre, 2 DAT
  Percent Control: 0%
[3]; 0.5 lb ai/acre, 7 DAT
  Percent Control: 0%
[3]; 0.5 lb ai/acre, 14 DAT
  Percent Control: 0%
[3]; 0.5 lb ai/acre, 20 DAT
  Percent Control: 0%
[3]; 0.75 lb ai/acre, 2 DAT
  Percent Control: 0%
[3]; 0.75 lb ai/acre, 7 DAT
  Percent Control: 0%
[3]; 0.75 lb ai/acre, 14 DAT
  Percent Control: 0%
[3]; 0.75 lb ai/acre, 20 DAT
  Percent Control: 0%
[3]; 1.0 lb ai/acre, 2 DAT
  Percent Control: 0%
[3]; 1.0 lb ai/acre, 7 DAT
  Percent Control: 5%
[3]; 1.0 lb ai/acre, 14 DAT
  Percent Control: 5%
[3]; 1.0 lb ai/acre, 20 DAT
  Percent Control: 5%
[3]; 1.25 lb ai/acre, 2 DAT
  Percent Control: 5%
[3]; 1.25 lb ai/acre, 7 DAT
  Percent Control: 5%
[3]; 1.25 lb ai/acre, 14 DAT
  Percent Control: 2%
[3]; 1.25 lb ai/acre, 20 DAT
  Percent Control: 5%
[4]; 1-2 leaf stage, 11 days old, 0.375 lb ai/acre, 1 DAT
  Percent Control: 0%
[4]; 1-2 leaf stage, 11 days old, 0.375 lb ai/acre, 3 DAT
  Percent Control: 5%
[4]; 1-2 leaf stage, 11 days old, 0.375 lb ai/acre, 7 DAT
  Percent Control: 5%
[4]; 1-2 leaf stage, 11 days old, 0.375 lb ai/acre, 14 DAT
  Percent Control: 0%
[4]; 1-2 leaf stage, 11 days old, 0.375 lb ai/acre, 21 DAT
  Percent Control: 0%
[4]; 1-2 leaf stage, 11 days old, 0.75 lb ai/acre, 1 DAT
  Percent Control: 0%
[4]; 1-2 leaf stage, 11 days old, 0.75 lb ai/acre, 3 DAT
  Percent Control: 10%
[4]; 1-2 leaf stage, 11 days old, 0.75 lb ai/acre, 7 DAT
  Percent Control: 5%
[4]; 1-2 leaf stage, 11 days old, 0.75 lb ai/acre, 14 DAT
  Percent Control: 0%
[4]; 1-2 leaf stage, 11 days old, 0.75 lb ai/acre, 21 DAT
  Percent Control: 0%
[4]; 1-2 leaf stage, 11 days old, 1.0 lb ai/acre, 1 DAT
  Percent Control: 0%
[4]; 1-2 leaf stage, 11 days old, 1.0 lb ai/acre, 3 DAT
  Percent Control: 10%
[4]; 1-2 leaf stage, 11 days old, 1.0 lb ai/acre, 7 DAT
  Percent Control: 10%
[4]; 1-2 leaf stage, 11 days old, 1.0 lb ai/acre, 14 DAT
  Percent Control: 2%
[4]; 1-2 leaf stage, 11 days old, 1.0 lb ai/acre, 21 DAT
  Percent Control: 2%
[4]; 3-4 leaf stage, 1-2 tillers, 14 days old, 0.375 lb ai/acre, 1 DAT
  Percent Control: 0%
[4]; 3-4 leaf stage, 1-2 tillers, 14 days old, 0.375 lb ai/acre, 3 DAT
  Percent Control: 5%
[4]; 3-4 leaf stage, 1-2 tillers, 14 days old, 0.375 lb ai/acre, 7 DAT
  Percent Control: 5%
[4]; 3-4 leaf stage, 1-2 tillers, 14 days old, 0.375 lb ai/acre, 14 DAT
  Percent Control: 0%
[4]; 3-4 leaf stage, 1-2 tillers, 14 days old, 0.375 lb ai/acre, 21 DAT
  Percent Control: 0%
[4]; 3-4 leaf stage, 1-2 tillers, 14 days old, 0.75 lb ai/acre, 1 DAT
  Percent Control: 0%
[4]; 3-4 leaf stage, 1-2 tillers, 14 days old, 0.75 lb ai/acre, 3 DAT
  Percent Control: 5%
[4]; 3-4 leaf stage, 1-2 tillers, 14 days old, 0.75 lb ai/acre, 7 DAT
  Percent Control: 5%
[4]; 3-4 leaf stage, 1-2 tillers, 14 days old, 0.75 lb ai/acre, 14 DAT
  Percent Control: 5%
[4]; 3-4 leaf stage, 1-2 tillers, 14 days old, 0.75 lb ai/acre, 21 DAT
  Percent Control: 0%
[4]; 3-4 leaf stage, 1-2 tillers, 14 days old, 1.0 lb ai/acre, 1 DAT
  Percent Control: 0%
[4]; 3-4 leaf stage, 1-2 tillers, 14 days old, 1.0 lb ai/acre, 3 DAT
  Percent Control: 5%
[4]; 3-4 leaf stage, 1-2 tillers, 14 days old, 1.0 lb ai/acre, 7 DAT
  Percent Control: 10%
[4]; 3-4 leaf stage, 1-2 tillers, 14 days old, 1.0 lb ai/acre, 14 DAT
  Percent Control: 5%
[4]; 3-4 leaf stage, 1-2 tillers, 14 days old, 1.0 lb ai/acre, 21 DAT
  Percent Control: 5%
